Laboratory results as given in US11497788B2, “Supramolecular glycosaminoglycans” (Northwestern University, priority 2015, dated 2022).

How the values were obtained:
[1] = system: FGF-2 signaling in BaF3-FR1C cells; assay: BaF3-FR1C cell proliferation assay with FGF-2; format: cell-based; settings: FGF-2 10 ng/ml; 2 days
Method: BaF3-FR1C Cell Proliferation Assay: Upon reception of a frozen vial, BaF3-FR1C cells were cultured and expanded in growth media as recommended (40). The cells were grown in RPMI1640 medium with 2 mM L-glutamine (Thermo Fisher) containing 10% newborn bovine calf serum (Thermo Fisher), 0.5 ng/mL of recombinant mouse IL-3 (Peprotech), 600 μg/mL of G418 sulfate (Thermo Fisher), 50 nM of 2-mercaptoethanol (Thermo Fisher), and 100 unit/mL penicillin and 100 μg/mL streptomycin (Thermo Fisher) at 37° C., 5% CO2. The medium was changed every 2 days. Experiments were performed using with 1-3 week old passaged cells. The BaF3-FR1C cells were first assessed with the CyQUANT direct cell proliferation assay (Thermo Fisher), but no change in fluorescent signal was observed from a 0 to 2 day old culture in growth conditions although the growth was evident under the microscope. […] For assays testing the effect of heparin and glycopeptide nanofibers FGF-2 induced proliferation, 10,000 cells/well were plated in 50 μl of growth media without G148 sulfate and recombinant mouse IL-3 (NT media) in a 96-well plate. We then added a 2×concentrated mixture of FGF-2 with heparin or glycopeptide nanofibers in the same NT media. […] The absorbance was read at 490 nm in a Cytation 3 instrument (BioTek) and cell growth was compared to cells in NT media. […]

[2] = biological target: T1, BMP-2 (Homo sapiens, UniProt P12643); assay: BMP-2 stability assay (ELISA) in C2C12 culture; format: cell-based; settings: 75 ng/mL BMP-2; 0, 3, 9, 24 h
T1 construct: purchased Medtronic Sofamor Danek (Minneapolis, Minn.)
T1 sequence (P12643 283-396): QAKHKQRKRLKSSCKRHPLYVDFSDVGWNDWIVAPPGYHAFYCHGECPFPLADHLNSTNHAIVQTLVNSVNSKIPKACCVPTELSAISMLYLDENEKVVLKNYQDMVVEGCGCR
Method: BMP-2 Stability Assay: C2C12 cells were seeded at 150,000 cells/mL (500 μL/well in a 48-well plate) and incubated overnight. Following, the media was replaced with treatment media (75 ng/mL BMP-2 in the presence/absence of PA 1, PA 4, and monosaccharide 1. The media was collected at 0, 3, 9, and 24 h and stored at −80° C. prior to BMP-2 quantification. In addition, the cell monolayers were lysed at the indicated time with a 100 μL of M-PER Mammalian Protein Extraction Reagent, supplemented with 1×Halt Protease Inhibitor Cocktail, and also stored at −80° C. prior to BMP-2 quantification. The amount of BMP-2 present in the media and cell extracts was assayed using a BMP-2 Quantikine ELISA kit (R&D Systems) according to the manufacturer's specifications.

“3,4,6S-GlcNAc PA (VVAAEEK) [PA 1, glycosylated peptide amphiphile: Alkyne PA click-conjugated with trisulfated monosaccharide 1]” was tested, and the “FGF-2 mediated cell proliferation” value [1] was “improved” and the “BMP-2 stability in cell culture media” value [2] was “improved BMP-2 stability”.
